Measured values: ChEMBL document CHEMBL5291721, “A preclinical secondary pharmacology resource illuminates target-adverse drug reaction associations of marketed drugs” (Nat Commun, 2023)

Experiments:
D(3) dopamine receptor = D(3) dopamine receptor (Homo sapiens, UniProt P35462)
[1] = target: 5-hydroxytryptamine receptor 2B (Homo sapiens, UniProt P41595); format: functional, cell-based
[2] = target: 3',5'-cyclic-AMP phosphodiesterase 4D (Homo sapiens, UniProt Q08499); format: functional
[3] = target: Sodium-dependent noradrenaline transporter (Homo sapiens, UniProt P23975)
Sodium-dependent noradrenaline transporter, sequence (P23975 whole entry): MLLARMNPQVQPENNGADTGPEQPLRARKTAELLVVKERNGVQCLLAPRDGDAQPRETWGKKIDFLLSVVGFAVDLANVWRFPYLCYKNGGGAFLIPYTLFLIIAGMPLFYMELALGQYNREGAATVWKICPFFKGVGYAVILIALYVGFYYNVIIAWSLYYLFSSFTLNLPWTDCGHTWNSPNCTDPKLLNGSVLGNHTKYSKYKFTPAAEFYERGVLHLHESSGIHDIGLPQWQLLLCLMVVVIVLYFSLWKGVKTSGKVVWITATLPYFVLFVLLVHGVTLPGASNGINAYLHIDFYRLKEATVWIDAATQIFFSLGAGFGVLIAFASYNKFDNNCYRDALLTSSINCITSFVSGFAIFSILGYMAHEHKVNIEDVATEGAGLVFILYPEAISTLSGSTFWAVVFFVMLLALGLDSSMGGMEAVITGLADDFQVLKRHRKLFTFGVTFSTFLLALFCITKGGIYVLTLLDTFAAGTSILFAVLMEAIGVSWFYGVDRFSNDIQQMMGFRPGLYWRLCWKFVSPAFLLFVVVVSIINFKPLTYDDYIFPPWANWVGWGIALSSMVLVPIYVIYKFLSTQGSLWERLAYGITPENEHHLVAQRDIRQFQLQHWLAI

[4] = target: T1, 5-hydroxytryptamine receptor 2C (Homo sapiens, UniProt P28335)
T1 sequence (P28335 whole entry): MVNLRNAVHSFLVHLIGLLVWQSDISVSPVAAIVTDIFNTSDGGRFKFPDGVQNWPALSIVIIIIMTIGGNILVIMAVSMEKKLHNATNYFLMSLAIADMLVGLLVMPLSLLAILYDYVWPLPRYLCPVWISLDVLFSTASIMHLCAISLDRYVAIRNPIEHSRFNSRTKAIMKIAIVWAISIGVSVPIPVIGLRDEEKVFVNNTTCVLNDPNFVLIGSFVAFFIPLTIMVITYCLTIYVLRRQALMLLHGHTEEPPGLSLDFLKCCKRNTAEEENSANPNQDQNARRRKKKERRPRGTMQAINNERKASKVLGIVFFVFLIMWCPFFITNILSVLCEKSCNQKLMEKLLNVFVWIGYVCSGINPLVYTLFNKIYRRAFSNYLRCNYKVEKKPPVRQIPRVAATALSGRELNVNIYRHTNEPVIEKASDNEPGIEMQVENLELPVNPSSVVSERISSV

Melanocortin receptor 3 = Melanocortin receptor 3 (Homo sapiens, UniProt P41968)
Melanocortin receptor 3, sequence (P41968 whole entry): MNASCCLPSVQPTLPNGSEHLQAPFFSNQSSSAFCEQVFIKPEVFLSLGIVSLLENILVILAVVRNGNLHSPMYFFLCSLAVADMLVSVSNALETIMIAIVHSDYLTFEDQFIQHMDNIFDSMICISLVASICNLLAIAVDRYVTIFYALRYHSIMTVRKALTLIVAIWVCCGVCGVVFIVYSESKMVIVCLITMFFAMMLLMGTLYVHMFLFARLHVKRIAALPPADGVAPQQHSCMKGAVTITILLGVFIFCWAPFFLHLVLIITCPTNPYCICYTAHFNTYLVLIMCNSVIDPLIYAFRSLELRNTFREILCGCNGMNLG

[5] = target: T2, Alpha-2A adrenergic receptor (Homo sapiens, UniProt P08913); format: functional, cell-based
T2 sequence (P08913 whole entry): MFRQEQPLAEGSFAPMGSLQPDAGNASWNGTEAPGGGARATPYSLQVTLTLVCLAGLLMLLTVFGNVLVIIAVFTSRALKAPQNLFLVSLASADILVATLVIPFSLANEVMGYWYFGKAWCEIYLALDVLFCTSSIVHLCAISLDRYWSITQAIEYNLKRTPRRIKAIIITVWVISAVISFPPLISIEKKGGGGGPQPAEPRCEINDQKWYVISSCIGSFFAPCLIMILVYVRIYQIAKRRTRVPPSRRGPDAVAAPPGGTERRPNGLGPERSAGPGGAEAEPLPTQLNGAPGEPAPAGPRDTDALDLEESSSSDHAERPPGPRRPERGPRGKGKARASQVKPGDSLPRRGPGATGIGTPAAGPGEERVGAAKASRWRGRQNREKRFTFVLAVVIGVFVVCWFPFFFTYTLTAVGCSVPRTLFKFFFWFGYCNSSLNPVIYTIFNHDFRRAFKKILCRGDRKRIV

D(1A) dopamine receptor = D(1A) dopamine receptor (Homo sapiens, UniProt P21728); format: functional, cell-based
D(1A) dopamine receptor, sequence (P21728 whole entry): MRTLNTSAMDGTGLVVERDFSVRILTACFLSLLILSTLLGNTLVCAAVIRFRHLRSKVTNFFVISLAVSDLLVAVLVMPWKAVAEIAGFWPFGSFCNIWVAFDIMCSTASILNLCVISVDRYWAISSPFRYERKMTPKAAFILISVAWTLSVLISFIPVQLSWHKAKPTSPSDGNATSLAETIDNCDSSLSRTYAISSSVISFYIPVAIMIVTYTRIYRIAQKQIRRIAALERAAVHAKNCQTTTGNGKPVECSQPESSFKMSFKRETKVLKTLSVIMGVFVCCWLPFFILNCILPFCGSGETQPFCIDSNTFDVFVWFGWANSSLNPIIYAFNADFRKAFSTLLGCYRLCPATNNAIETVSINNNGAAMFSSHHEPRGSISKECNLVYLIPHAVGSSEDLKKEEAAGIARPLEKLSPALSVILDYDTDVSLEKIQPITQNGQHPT

[6] = target: T3, Amine oxidase [flavin-containing] A (Homo sapiens, UniProt P21397); format: functional
T3 sequence (P21397 whole entry): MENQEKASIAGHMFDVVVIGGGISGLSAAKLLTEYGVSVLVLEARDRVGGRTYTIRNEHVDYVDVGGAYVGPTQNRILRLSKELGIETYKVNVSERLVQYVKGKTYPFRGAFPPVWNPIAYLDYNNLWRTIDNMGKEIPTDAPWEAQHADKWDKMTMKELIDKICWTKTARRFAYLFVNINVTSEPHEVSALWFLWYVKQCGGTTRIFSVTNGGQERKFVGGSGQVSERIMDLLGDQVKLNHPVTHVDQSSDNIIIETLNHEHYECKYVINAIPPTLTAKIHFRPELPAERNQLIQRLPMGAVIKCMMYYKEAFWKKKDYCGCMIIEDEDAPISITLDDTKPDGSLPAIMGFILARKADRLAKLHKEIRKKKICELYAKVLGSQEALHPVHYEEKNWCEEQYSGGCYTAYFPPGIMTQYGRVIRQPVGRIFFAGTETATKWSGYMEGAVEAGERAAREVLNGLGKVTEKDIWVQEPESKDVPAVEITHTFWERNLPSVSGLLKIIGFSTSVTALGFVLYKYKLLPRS

Motilin receptor = Motilin receptor (Homo sapiens, UniProt O43193)
Motilin receptor, sequence (O43193 whole entry): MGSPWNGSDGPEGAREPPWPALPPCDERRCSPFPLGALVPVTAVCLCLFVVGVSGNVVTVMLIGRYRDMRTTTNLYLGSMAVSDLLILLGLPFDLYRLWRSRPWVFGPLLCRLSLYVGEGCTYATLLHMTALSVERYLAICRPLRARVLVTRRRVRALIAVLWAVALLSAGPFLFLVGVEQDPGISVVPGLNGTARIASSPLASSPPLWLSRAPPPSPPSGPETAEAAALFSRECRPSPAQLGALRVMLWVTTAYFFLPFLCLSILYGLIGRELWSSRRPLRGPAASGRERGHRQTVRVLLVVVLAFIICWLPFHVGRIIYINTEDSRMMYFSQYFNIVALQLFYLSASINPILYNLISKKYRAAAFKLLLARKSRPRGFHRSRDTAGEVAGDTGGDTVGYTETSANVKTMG

[7] = target: cGMP-inhibited 3',5'-cyclic phosphodiesterase 3A (Homo sapiens, UniProt Q14432); format: functional
cGMP-inhibited 3',5'-cyclic phosphodiesterase 3A, sequence (Q14432 whole entry): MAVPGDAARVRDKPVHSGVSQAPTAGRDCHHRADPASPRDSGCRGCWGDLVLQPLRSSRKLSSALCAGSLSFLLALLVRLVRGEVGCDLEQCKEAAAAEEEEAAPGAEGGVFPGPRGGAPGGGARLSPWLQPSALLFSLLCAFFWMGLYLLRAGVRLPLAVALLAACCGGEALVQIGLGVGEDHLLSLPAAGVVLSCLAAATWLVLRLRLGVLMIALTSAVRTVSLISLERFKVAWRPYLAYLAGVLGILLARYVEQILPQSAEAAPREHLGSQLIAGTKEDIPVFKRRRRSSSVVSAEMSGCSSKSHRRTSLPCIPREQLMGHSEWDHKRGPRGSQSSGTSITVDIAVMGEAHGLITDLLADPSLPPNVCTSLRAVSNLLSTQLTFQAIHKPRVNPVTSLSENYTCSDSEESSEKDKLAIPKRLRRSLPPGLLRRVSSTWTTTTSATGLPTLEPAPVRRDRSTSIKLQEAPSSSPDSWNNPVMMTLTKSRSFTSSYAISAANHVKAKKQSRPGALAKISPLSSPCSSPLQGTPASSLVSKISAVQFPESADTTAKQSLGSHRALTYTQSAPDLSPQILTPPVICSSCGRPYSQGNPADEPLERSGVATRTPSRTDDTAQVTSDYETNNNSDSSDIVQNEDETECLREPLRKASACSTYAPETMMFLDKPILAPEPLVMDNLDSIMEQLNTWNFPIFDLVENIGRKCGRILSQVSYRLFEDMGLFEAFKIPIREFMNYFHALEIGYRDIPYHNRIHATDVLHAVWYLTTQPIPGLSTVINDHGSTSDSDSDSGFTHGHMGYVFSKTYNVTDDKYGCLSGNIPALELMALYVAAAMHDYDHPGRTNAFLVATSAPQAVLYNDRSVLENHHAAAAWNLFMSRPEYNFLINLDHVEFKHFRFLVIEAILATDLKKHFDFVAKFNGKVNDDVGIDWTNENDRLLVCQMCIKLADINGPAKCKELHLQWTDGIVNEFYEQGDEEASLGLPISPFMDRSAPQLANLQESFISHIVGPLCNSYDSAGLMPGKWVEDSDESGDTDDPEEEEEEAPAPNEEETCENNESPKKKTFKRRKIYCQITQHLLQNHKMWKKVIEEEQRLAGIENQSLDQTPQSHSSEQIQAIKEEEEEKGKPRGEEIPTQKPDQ

[8] = target: T4, Cholecystokinin receptor type A (Homo sapiens, UniProt P32238)
T4 sequence (P32238 whole entry): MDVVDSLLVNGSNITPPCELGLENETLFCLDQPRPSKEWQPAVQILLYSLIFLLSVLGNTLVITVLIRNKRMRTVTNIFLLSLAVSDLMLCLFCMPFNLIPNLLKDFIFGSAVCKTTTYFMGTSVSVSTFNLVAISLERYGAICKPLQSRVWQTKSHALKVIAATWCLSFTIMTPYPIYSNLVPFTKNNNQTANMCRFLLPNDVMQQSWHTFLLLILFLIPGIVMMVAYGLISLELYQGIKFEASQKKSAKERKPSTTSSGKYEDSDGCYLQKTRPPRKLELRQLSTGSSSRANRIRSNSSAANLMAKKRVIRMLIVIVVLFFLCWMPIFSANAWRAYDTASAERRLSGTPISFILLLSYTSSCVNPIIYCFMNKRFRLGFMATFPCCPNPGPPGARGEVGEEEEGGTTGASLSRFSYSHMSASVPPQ

[9] = target: T5, 5-hydroxytryptamine receptor 3A (Homo sapiens, UniProt P46098); format: functional
T5 sequence (P46098 whole entry): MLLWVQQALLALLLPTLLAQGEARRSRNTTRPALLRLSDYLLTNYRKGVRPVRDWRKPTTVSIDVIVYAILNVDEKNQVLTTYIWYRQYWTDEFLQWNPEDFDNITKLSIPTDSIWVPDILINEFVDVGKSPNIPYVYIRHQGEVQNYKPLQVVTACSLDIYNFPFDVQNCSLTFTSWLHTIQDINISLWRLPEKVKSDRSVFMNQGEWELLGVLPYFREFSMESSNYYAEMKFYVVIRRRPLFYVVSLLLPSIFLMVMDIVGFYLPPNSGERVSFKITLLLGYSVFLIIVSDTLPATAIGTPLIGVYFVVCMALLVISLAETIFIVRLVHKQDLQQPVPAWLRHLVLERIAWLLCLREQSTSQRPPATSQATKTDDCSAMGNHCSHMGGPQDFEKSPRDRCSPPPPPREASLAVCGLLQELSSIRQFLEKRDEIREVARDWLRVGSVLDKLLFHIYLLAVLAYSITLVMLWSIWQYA
Further: assay procedure not described here.

D(3) dopamine receptor, sequence (P35462 whole entry): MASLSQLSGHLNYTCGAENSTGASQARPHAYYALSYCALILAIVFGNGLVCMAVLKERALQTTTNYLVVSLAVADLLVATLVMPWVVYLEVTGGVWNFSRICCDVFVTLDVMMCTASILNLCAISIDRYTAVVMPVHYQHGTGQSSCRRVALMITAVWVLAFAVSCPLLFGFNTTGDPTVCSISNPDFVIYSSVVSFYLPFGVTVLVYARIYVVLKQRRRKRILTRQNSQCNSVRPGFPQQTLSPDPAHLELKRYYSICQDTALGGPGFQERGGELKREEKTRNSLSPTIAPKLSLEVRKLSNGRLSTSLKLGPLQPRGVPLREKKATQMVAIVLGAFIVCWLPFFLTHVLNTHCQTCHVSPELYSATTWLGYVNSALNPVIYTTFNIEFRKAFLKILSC
3',5'-cyclic-AMP phosphodiesterase 4D, sequence (Q08499 whole entry): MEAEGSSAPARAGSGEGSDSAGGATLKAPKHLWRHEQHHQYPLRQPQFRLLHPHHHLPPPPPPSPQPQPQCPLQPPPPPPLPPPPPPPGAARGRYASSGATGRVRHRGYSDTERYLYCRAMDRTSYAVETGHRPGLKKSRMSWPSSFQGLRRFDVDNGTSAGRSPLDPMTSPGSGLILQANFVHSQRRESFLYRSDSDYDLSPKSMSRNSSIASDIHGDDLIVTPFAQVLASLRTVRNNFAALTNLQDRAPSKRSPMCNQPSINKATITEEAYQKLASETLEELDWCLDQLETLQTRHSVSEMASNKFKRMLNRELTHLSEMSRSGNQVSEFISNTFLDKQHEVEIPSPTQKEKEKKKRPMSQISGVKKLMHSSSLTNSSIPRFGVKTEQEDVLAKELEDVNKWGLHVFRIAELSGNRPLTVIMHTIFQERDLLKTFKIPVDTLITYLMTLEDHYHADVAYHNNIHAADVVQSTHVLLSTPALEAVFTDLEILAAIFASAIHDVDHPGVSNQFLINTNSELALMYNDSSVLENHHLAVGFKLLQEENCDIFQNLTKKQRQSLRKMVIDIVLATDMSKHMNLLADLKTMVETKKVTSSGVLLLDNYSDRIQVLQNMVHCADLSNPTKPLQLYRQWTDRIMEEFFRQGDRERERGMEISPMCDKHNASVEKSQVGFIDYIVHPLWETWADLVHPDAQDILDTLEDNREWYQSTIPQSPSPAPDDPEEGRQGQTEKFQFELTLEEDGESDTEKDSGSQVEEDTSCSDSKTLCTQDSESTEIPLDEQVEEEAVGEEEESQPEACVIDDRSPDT
5-hydroxytryptamine receptor 2B, sequence (P41595 whole entry): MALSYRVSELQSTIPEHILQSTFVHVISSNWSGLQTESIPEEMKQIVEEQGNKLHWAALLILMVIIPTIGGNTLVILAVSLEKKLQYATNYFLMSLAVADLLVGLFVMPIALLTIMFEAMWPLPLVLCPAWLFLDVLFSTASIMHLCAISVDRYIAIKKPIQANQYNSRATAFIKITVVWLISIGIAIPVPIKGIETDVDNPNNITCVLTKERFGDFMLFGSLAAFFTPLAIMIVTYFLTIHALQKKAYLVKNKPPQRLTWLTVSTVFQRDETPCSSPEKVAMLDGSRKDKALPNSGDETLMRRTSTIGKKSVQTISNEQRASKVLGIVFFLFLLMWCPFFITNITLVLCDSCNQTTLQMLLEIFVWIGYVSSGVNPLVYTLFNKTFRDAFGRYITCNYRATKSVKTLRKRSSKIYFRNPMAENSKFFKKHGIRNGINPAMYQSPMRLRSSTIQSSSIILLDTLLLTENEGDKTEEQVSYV

SMILES	AC50 (D(3) dopamine receptor) [µM]	AC50 [1] [µM]	AC50 [2] [µM]	AC50 [3] [µM]	AC50 [4] [µM]	AC50 (Melanocortin receptor 3) [µM]	AC50 [5] [µM]	AC50 (D(1A) dopamine receptor) [µM]	AC50 [6] [µM]	AC50 (Motilin receptor) [µM]	AC50 [7] [µM]	AC50 [8] [µM]	AC50 [9] [µM]
COc1ccc2c(c1)C(=O)N(CCc1ccc(S(=O)(=O)NC(=O)NC3CCCCC3)cc1)C(=O)C2(C)C [GLIQUIDONE]	> 30	> 30	1.4	> 30	> 30	> 30	> 30	> 30	> 30	> 30	5.3	> 30	> 30
NS(=O)(=O)c1cc2c(cc1Cl)NCNS2(=O)=O [HYDROCHLOROTHIAZIDE]	> 10	> 10	> 10	> 10	> 10	> 30	> 10	> 10	> 10	> 10	> 30	> 30	> 10
CC(C)Cc1ccc(CC(=O)O)cc1 [IBUFENAC]	> 30	> 30	> 30	> 30	> 30	> 30	> 30	> 30	> 30	> 30	> 30	> 30	> 30
NC[C@H]1O[C@H](O[C@H]2[C@H](O)[C@@H](O[C@H]3O[C@H](CO)[C@@H](O)[C@H](N)[C@H]3O)[C@H](N)C[C@@H]2N)[C@H](O)[C@@H](O)[C@@H]1O [KANAMYCIN]	> 30	> 10	> 30	> 10	> 30	> 10	> 10	> 30	> 30	> 10	> 30	> 10	> 30
CN1C(=O)CC(C)(c2ccccc2)C1=O (configuration not stated) [METHSUXIMIDE]	> 30	> 10	> 30	> 10	> 30	> 10	> 10	> 30	> 10	> 10	> 30	> 10	> 30
C[C@H]1C[C@@H]2[C@H]([C@@H](O)C[C@@]3(C)[C@H]2CC[C@]3(O)C(=O)CO)[C@@]2(C)C=CC(=O)C=C12 [METHYLPREDNISOLONE]	> 30	> 10	16	> 10	> 30	> 10	> 10	> 30	> 30	> 10	> 30	> 10	> 30
CCN(CC)CCNC(=O)c1cc(Cl)c(N)cc1OC [METOCLOPRAMIDE]	0.076	4.3	> 30	> 10	> 10	> 30	> 10	> 10	> 10	> 10	> 30	> 30	3.55
CC(C)(C(=O)c1cccnc1)c1cccnc1 [METYRAPONE]	> 30	> 10	> 30	> 10	> 30	> 10	> 10	> 10	> 10	> 10	> 30	> 10	> 30
NC(=O)c1ncn([C@@H]2O[C@H](CO)[C@@H](O)[C@H]2O)c1O [MIZORIBINE]	> 30	> 30	> 30	> 30	> 30	> 30	> 30	> 30	> 30	> 30	> 30	> 30	> 30
COC(=O)C1=C(C)NC(C)=C(C(=O)OCC(C)C)C1c1ccccc1[N+](=O)[O-] (configuration not stated) [NISOLDIPINE]	10	17	11	> 10	> 30	> 10	> 10	> 30	> 10	> 10	6.2	> 10	> 30
OCCN1CCN(CCCN2c3ccccc3C=Cc3ccccc32)CC1 [OPIPRAMOL]	1.32	> 30	> 30	> 30	> 30	> 30	> 30	> 30	> 30	> 30	> 30	> 30	> 30
NC1=NC(=O)C(c2ccccc2)O1 (configuration not stated) [PEMOLINE]	> 30	> 10	> 30	> 30	> 30	> 30	> 10	> 10	> 10	> 10	> 30	> 30	> 30
CCc1ccc(CCOc2ccc(CC3SC(=O)NC3=O)cc2)nc1 (configuration not stated) [PIOGLITAZONE]	> 10	> 10	> 10	> 30	> 10	> 30	> 10	> 10	> 10	> 10	> 30	> 30	> 10
CC(C(=O)O)c1ccc(N2CC=CC2)c(Cl)c1 (configuration not stated) [PIRPROFEN]	> 10	> 10	> 30	> 10	> 30	> 30	> 10	> 10	> 10	> 10	> 30	> 30	> 30
